Experimental data: US12241083B2, “Macs-based purification of stem cell-derived retinal pigment epithelium” (FUJIFILM Cellular Dynamics, Inc., priority 2015, dated 2025)
Entries after “also recorded” stand apart in the source; their conditions may differ.

Experiments:
Assay type in all cases: cell-based, human
iPSC-RPE cells [1] = assay: Transmission electron microscopy of iPSC-RPE cells; conditions: PGE2-treated vs untreated iPSC-RPE cells
Protocol: (§1) For analysis of the mature RPE cells produced from treatment with PGE2, immunostaining of the RPE monolayer was performed to confirm the hexagonal architecture (FIGS. 4A-4C) of tight junctions by ZO1 staining as well as transmission electron microscopy of the iPSC-RPE cells (FIG. 4D).

iPSC-RPE cells [2] = assay: Immunostaining of the iPSC-RPE monolayer (beta catenin, pERM, ZO1, RPE65, p27); conditions: for Production of mature RPE cells: conclusion from beta catenin and RPE65 staining; for Beta catenin staining: treated iPSC-RPE cells vs untreated (untreated: beta catenin in cytoplasm); for p27 staining: treated cells vs untreated (untreated: weak p27 in nucleus), higher p27 suggests cell cycle exit
Source text: The mature RPE cells were further developed into functional RPE cell monolayers that function as an intact RPE tissue by continued culture in the RPE-MM with additional small molecules such as primary cilium inducers like PGE2 or aphidicolin. Without being bound by theory, these primary cilium inducers suppress the canonical WNT pathway, induce cell cycle exit in the cells, and induce apical-basal polarization in the RPE monolayer. RPE maturity can alternatively be induced by canonical WNT pathway inhibitors such as IWP2 and endo-IWR1 that also induce cell cycle exit in RPE cells to promote RPE maturation. The cells were cultured in this medium for another 2-3 weeks to obtain mature and functional RPE cell monolayers. Thus, the presently disclosed methods provide mature RPE cells from pluripotent cells that can be consistently reproduced at a large scale for clinical applications.
as §1

[3] = test system: iPSC-derived RPE cultures; assay: Flow cytometry purity assay for RPE-specific markers
Protocol: The flow cytometry purity assay was performed to determine the percentage of RPE cells obtained by a sorting method of the present disclosure. An aliquot of the cell suspension collected from the MACS assay (2×10^6 cells in a 5 mL FACS tube per sample) was centrifuged at 400×g for 3 min. The cell pellet was resuspended in 1 mL of a stain (e.g., Live-Dead Red stain) and incubated in the dark at room temperature for 15 min. After incubation, 2 mL of wash buffer was added and the cells were centrifuged at 400×g for 3 min to remove any unbound stain. The cell pellet was resuspended in fixation buffer and incubated in the dark at room temperature for 15 min. After incubation, 2 mL of wash buffer were added and the cells were centrifuged at 400×g for 3 min and the supernatant was decanted. The cell pellet was resuspended in 2 mL of wash buffer to make a 1×10^6 cells/mL suspension and 200 μL of the cell suspension was transferred to a FACS tube. To each tube, 2 mL of perm buffer was added and cells were centrifuged at 400×g for 3 min. Primary antibodies for the RPE-specific markers were diluted in perm buffer and 100 μL diluted antibody solution was added to each tube. After incubation overnight at 4° C. in the dark, the cells were washed in 2 mL Penn Buffer two times. Secondary antibody solution was added to each of the tubes and cells were incubated at room temperature in the dark for 1-2 hours. […]
Next, it was tested whether an increase in the concentration of PGE2 from 50 μM to 100 μM in the RPE-MM+PGE2 medium would improve both purity of the RPE population (i.e., a decrease in contaminating cells) as well as maturity of the resulting RPE population. To determine the maturity and functionality of the 50 μM versus 100 μM PGE2 treated cultures, the barrier function in terms of transepithelial electrical resistance (TER) was measured (FIG. 7F) to compare the resistance of substances through the paracellular space as explained in Example 9. […]

iPSC-derived RPE cells = assay: Barrier function: transepithelial electrical resistance (TER) and potential (TEP) of the RPE monolayer
Protocol: To measure the barrier function of the RPE cells generated by the present methods, transepithelial electrical potential (TEP) was measured the ion gradient across the monolayer generated by energy-driven ion pumps that regulate passage across the cells, and transepithelial electrical resistance (TER) measures resistance of substances through the paracellular space mainly through the fine structure of the tight junction structure (FIG. 7A).
Functionality of the mature RPE cells treated with IWP2 or endo-IWR1 was also characterized.
Next, it was tested whether an increase in the concentration of PGE2 from 50 μM to 100 μM in the RPE-MM+PGE2 medium would improve both purity of the RPE population (i.e., a decrease in contaminating cells) as well as maturity of the resulting RPE population. To determine the maturity and functionality of the 50 μM versus 100 μM PGE2 treated cultures, the barrier function in terms of transepithelial electrical resistance (TER) was measured (FIG. 7F) to compare the resistance of substances through the paracellular space as explained in Example 9. To determine the percentage of pure RPE cells obtained after treatment of the iPSC-derived RPE cultures with 50 μM or 100 μM in the RPE-MM+PGE2 medium, flow cytometry purity assay was performed for RPE-specific markers (FIG. 7G) as described in Example 6.

[4] = test system: iPSC-derived RPE population; assay: Inclusion of MEK inhibitor in RDM and RPE-MM during RPE differentiation; conditions: 1 μM in RDM and in RPE-MM (approximately Days 42 through 50)
Protocol: With regard to the methods described in Examples 2 and 3, the inclusion of PD0325901 at a concentration of 1 μM in media for certain windows of time beginning on Day 2 post iPSC plating through the end of the differentiation process, including post-MACS culture, may improve both purity of the RPE population (meaning a decrease in contaminating cells) as well as maturity of the resulting RPE population.

[5] = treated iPSC-RPE cells vs untreated (untreated: low in cytoplasm)
[6] = day 75, 100 μM vs 50 μM PGE2 from day 54 to day 75

CCCCC[C@H](O)/C=C/[C@H]1[C@H](O)CC(=O)[C@@H]1C/C=C\CCCC(=O)O [PGE2, prostaglandin E2]
Apical processes in transmission electron micrographs (iPSC-RPE cells [1]): more extensive apical processes
Production of mature RPE cells (iPSC-RPE cells [2]): produces mature RPE cells
ZO1 staining (iPSC-RPE cells [2]; treated and untreated iPSC-RPE cells): at the tight junctions in the plasma membrane
Beta catenin staining (iPSC-RPE cells [2]): decreased beta catenin; also recorded: at the membrane
RPE65 staining (iPSC-RPE cells [2]; [5]): increased RPE65; also recorded: high in the cytoplasm of the treated cells
pERM (Ezrin) staining (iPSC-RPE cells [2]; [5]): high in the cytoplasm of the treated cells
Purity and maturity of the RPE population ([3]; PGE2 raised from 50 μM to 100 μM in RPE-MM+PGE2, judged by TER and flow cytometry): promotes both the purity and maturity
Expression of Best 1 marker (late maturity RPE marker) [3, 6]: much higher
Percent expression of Pmel17, Tryp1 and Cralbp (RPE-specific markers) [3, 6]: comparable expression
Functional response (TER) (iPSC-derived RPE cells; 100 μM vs 50 μM PGE2 in RPE-MM+PGE2 medium, Day 54 to Day 75): progressive increase
TEP and TER measurements (functionality) (iPSC-derived RPE cells; treated RPE cells versus untreated RPE cells): increased functionality

O=C(NOC[C@H](O)CO)c1ccc(F)c(F)c1Nc1ccc(I)cc1F [PD0325901, N-[(2R)-2,3-Dihydroxypropoxy]-3,4-difluoro-2-[(2-fluoro-4-iodophenyl)amino]-benzamide]
Purity and maturity of the RPE population [4]: improve both purity and maturity

Cc1ccc2nc(NC(=O)CSc3nc4c(c(=O)n3-c3ccccc3)SCC4)sc2c1 [IWP2, N-(6-Methyl-2-benzothiazolyl)-2-[(3,4,6,7-tetrahydro-4-oxo-3-phenylthieno[3,2-d]pyrimidin-2-yl)thio]-acetamide]
Production of mature RPE cells (iPSC-RPE cells [2]): produces mature RPE cells
p27 staining (iPSC-RPE cells [2]): higher p27 expression in the nucleus
Beta catenin staining (iPSC-RPE cells [2]): decreased beta catenin; also recorded: beta catenin on cell membrane
RPE65 staining (iPSC-RPE cells [2]; [5]): increased RPE65; also recorded: high in the cytoplasm

[Cl-].[Li+] [LiCl]
p27 staining (iPSC-RPE cells [2]): weak p27 expression in the nucleus
Beta catenin staining (iPSC-RPE cells [2]): beta catenin in the nucleus
RPE65 staining (iPSC-RPE cells [2]; [5]): no staining is seen
